Legend:
PC-12 = test: Cytotoxicity against rat PC12 cells assessed as reduction in cell viability at 0.625 to 20 uM incubated for 72 hrs by MTT assay; type: cell-based; details: pc-12, 72 h
HCT-116 = test: Antiproliferative activity against human HCT116 cells assessed as reduction in cell viability incubated for 72 hrs by MTT assay; type: functional, cell-based; details: HCT-116, 72 h
[1] = Volume of distribution at steady state in Sprague-Dawley rat at 1 mg/kg, iv measured upto 24 hrs by LC-MS/MS analysis; type: ADME, organism-based; details: in vivo, read-out: Vdss
A549 = test: Antitumor activity against human A549 cells xenografted in BALB/c nude mouse assessed as tumor growth inhibition at 20 mg/kg, ig administered for 30 days measured every 3 days during compound dosing relative to control; type: functional; details: A549, po, read-out: TGI
[2] = biological target: Tyrosine-protein kinase ABL1 (Homo sapiens) (UniProt P00519); test: Inhibition of human ABL1 at 100 nM using EAIYAAPFAKKK as substrate by [gamma-33P]-ATP assay
[3] = biological target: Bone morphogenetic protein receptor type-1A (Homo sapiens) (UniProt P36894); test: Inhibition of human ALK3 at 100 nM using casein as substrate by [gamma-33P]-ATP assay
[4] = biological target: Tyrosine-protein kinase Mer (Homo sapiens) (UniProt Q12866); test: Inhibition of human c-MER at 100 nM using poly[Glu:Tyr] (4:1) as substrate by [gamma-33P]-ATP assay
[5] = biological target: CDK18/Cyclin Y (Homo sapiens) (UniProt Q07002+Q8ND76); test: Inhibition of human CDK18/cyclin-Y at 100 nM using RB protein as substrate by [gamma-33P]-ATP assay; type: protein-complex assay
[6] = biological target: CDK3/Cyclin-E2 (Homo sapiens) (UniProt O96020+Q00526); test: Inhibition of human CDK3/cyclin-E2 at 100 nM using histone H1 as substrate by [gamma-33P]-ATP assay; type: protein-complex assay
Chain of CDK3/Cyclin-E2 (Homo sapiens) (O96020 whole entry, looked up): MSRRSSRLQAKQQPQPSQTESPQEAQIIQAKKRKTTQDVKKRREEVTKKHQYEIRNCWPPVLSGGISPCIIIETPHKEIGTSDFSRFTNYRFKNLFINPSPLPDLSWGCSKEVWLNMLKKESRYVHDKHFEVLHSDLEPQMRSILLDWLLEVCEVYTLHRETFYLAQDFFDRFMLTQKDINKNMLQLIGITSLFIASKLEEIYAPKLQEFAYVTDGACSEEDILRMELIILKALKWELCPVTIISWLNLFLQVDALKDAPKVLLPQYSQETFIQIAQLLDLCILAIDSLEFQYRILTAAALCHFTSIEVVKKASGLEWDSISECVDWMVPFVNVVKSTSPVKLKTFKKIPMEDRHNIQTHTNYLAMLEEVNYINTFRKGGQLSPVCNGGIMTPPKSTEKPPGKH
Chain of CDK3/Cyclin-E2 (Homo sapiens) (Q00526 whole entry, looked up): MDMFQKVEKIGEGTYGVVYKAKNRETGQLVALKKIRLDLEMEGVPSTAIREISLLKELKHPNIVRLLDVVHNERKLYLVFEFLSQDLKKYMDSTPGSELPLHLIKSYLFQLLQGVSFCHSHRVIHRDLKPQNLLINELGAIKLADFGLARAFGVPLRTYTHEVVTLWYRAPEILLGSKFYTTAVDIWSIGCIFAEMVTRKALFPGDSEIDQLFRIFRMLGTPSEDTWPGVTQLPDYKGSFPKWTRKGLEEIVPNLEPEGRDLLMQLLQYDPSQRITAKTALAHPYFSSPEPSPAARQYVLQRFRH

[7] = biological target: CDK6/cyclin D1 (Homo sapiens) (UniProt P24385+Q00534); test: Inhibition of human CDK6/cyclin-D1 at 100 nM using RB protein as substrate by [gamma-33P]-ATP assay; type: protein-complex assay
[8] = biological target: Ephrin type-A receptor 7 (Homo sapiens) (UniProt Q15375); test: Inhibition of human EPHA7 at 100 nM using poly[Glu:Tyr] (4:1) as substrate by [gamma-33P]-ATP assay
[9] = biological target: Receptor tyrosine-protein kinase erbB-4 (Homo sapiens) (UniProt Q15303); test: Inhibition of human ERBB4 at 100 nM using poly[Glu:Tyr] (4:1) as substrate by [gamma-33P]-ATP assay
Chain of Receptor tyrosine-protein kinase erbB-4 (Homo sapiens) (Q15303 whole entry): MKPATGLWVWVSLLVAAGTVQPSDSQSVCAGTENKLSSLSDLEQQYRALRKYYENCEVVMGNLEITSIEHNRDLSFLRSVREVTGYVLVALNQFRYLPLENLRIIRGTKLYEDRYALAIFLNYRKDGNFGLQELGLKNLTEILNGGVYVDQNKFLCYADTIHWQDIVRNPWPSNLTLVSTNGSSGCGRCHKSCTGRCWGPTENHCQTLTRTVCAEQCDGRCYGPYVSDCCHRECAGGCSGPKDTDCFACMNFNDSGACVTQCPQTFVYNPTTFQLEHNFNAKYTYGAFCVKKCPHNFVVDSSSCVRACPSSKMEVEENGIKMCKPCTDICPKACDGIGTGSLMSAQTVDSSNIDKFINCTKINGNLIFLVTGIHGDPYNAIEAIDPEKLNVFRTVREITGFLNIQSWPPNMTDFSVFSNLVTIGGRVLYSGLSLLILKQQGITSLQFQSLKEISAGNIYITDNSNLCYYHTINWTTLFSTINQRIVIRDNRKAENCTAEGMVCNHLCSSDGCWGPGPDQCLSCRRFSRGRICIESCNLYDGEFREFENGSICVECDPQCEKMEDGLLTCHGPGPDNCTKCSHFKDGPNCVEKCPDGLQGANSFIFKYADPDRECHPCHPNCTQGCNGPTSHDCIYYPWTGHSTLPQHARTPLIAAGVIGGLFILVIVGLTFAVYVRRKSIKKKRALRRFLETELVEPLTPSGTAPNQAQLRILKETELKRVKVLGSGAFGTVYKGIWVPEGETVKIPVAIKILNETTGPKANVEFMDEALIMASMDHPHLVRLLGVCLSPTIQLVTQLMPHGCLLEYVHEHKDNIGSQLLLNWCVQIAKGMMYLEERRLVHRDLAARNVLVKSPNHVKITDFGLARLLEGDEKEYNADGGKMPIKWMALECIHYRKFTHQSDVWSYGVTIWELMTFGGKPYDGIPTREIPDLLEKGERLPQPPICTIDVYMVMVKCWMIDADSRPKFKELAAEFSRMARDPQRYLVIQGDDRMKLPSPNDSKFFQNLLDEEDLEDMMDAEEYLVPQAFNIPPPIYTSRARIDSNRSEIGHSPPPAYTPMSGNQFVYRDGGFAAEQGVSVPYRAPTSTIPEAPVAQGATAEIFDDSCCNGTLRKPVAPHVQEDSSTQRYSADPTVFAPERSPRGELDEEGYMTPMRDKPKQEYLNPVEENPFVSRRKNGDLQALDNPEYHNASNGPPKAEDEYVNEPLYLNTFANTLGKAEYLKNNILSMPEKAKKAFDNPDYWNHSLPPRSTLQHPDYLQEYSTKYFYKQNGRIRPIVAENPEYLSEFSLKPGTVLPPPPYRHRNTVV

[10] = biological target: Mitogen-activated protein kinase 1 (Homo sapiens) (UniProt P28482); test: Inhibition of human ERK2 at 100 nM using MBP as substrate by [gamma-33P]-ATP assay
[11] = biological target: Mitogen-activated protein kinase 7 (Homo sapiens) (UniProt Q13164); test: Inhibition of human ERK5 at 100 nM using MBP as substrate by [gamma-33P]-ATP assay
[12] = biological target: Serine/threonine-protein kinase/endoribonuclease IRE1 (Homo sapiens) (UniProt O75460); test: Inhibition of human ERN1 at 100 nM using MBP as substrate by [gamma-33P]-ATP assay
Chain of Serine/threonine-protein kinase/endoribonuclease IRE1 (Homo sapiens) (O75460 19-977 limits assumed): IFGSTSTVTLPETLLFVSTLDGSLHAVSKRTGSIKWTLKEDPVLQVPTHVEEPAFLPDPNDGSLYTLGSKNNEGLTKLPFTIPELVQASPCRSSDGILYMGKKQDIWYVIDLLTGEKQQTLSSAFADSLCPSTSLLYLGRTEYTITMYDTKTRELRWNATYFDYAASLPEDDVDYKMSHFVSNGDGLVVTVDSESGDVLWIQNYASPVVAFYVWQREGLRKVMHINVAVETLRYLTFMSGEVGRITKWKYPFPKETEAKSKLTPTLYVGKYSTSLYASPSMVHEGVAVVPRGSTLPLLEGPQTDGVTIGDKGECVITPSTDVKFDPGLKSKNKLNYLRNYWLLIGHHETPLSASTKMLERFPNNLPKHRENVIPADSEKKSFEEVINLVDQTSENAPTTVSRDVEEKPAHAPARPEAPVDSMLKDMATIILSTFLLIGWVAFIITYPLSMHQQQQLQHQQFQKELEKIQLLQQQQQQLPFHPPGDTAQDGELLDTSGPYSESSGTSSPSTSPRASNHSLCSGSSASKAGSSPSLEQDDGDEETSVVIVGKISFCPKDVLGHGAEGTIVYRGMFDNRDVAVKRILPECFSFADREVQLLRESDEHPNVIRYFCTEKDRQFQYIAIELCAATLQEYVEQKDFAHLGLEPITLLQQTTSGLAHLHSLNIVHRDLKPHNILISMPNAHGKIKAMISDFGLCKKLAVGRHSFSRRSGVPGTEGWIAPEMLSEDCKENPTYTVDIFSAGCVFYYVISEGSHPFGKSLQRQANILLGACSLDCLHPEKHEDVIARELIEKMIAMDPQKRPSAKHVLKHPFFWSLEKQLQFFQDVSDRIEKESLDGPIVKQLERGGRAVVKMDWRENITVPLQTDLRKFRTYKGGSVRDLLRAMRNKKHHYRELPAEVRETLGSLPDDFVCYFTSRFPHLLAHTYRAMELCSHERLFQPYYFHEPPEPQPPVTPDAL

[13] = biological target: G protein-coupled receptor kinase 3 (Homo sapiens) (UniProt P35626); test: Inhibition of human GRK3 at 100 nM using casein as substrate by [gamma-33P]-ATP assay
[14] = biological target: Vascular endothelial growth factor receptor 2 (Homo sapiens) (UniProt P35968); test: Inhibition of human KDR at 100 nM using poly[Glu:Tyr] (4:1) as substrate by [gamma-33P]-ATP assay
[15] = biological target: Serine/threonine-protein kinase LATS1 (Homo sapiens) (UniProt O95835); test: Inhibition of human LATS1 at 100 nM using KKRNRRLSVA as substrate by [gamma-33P]-ATP assay
Chain of Serine/threonine-protein kinase LATS1 (Homo sapiens) (O95835 whole entry): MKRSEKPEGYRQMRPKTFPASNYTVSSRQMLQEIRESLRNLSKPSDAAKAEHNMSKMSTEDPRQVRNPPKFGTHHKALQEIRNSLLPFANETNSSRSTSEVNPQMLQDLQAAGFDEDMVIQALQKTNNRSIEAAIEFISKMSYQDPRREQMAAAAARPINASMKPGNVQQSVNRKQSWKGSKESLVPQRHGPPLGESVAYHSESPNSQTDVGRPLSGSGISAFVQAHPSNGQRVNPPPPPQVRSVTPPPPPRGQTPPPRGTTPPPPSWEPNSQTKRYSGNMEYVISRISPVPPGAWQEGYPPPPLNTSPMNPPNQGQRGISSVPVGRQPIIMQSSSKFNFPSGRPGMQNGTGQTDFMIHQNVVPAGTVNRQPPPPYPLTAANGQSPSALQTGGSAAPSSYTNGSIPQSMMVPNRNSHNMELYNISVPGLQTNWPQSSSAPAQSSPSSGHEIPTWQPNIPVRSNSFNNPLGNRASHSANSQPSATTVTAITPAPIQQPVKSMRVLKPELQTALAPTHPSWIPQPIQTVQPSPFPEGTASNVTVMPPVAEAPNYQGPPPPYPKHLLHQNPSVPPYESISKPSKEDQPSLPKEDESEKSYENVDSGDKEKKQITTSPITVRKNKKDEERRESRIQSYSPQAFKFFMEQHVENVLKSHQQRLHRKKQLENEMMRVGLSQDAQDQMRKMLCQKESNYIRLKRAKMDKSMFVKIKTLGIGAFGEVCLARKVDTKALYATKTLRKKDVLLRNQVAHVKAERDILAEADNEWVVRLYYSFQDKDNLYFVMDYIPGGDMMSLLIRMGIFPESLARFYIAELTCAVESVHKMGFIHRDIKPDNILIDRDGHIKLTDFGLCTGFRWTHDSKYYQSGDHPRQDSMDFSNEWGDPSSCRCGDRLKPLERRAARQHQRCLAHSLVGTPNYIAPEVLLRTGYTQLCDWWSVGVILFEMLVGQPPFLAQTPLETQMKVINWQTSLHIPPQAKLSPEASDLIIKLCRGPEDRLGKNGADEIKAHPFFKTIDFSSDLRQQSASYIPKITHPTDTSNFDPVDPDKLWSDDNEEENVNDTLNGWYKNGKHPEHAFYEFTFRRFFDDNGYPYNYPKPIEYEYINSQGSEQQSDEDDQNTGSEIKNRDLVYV

[16] = biological target: MAP kinase-activated protein kinase 5 (Homo sapiens) (UniProt Q8IW41); test: Inhibition of human MAPKAPK5 at 100 nM using KKLNRTLSVA as substrate by [gamma-33P]-ATP assay
Chain of MAP kinase-activated protein kinase 5 (Homo sapiens) (Q8IW41 whole entry): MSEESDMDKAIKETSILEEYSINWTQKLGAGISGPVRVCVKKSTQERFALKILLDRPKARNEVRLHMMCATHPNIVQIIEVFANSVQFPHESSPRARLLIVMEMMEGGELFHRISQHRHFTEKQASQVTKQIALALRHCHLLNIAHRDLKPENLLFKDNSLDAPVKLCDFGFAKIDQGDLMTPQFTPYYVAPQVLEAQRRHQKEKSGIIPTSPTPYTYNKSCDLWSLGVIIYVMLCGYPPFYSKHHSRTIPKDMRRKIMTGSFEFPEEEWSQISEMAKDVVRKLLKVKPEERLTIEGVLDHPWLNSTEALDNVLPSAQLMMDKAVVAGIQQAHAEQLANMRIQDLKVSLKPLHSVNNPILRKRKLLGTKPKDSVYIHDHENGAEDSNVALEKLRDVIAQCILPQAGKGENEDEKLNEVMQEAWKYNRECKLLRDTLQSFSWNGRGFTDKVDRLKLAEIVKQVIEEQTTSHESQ

[17] = biological target: Serine/threonine-protein kinase greatwall (Homo sapiens) (UniProt Q96GX5); test: Inhibition of human MASTL at 100 nM using ERK2 as substrate by [gamma-33P]-ATP assay
[18] = biological target: Dual specificity mitogen-activated protein kinase kinase 5 (Homo sapiens) (UniProt Q13163); test: Inhibition of human MEK5 at 100 nM using ERK5 as substrate by [gamma-33P]-ATP assay
Chain of Dual specificity mitogen-activated protein kinase kinase 5 (Homo sapiens) (Q13163 whole entry): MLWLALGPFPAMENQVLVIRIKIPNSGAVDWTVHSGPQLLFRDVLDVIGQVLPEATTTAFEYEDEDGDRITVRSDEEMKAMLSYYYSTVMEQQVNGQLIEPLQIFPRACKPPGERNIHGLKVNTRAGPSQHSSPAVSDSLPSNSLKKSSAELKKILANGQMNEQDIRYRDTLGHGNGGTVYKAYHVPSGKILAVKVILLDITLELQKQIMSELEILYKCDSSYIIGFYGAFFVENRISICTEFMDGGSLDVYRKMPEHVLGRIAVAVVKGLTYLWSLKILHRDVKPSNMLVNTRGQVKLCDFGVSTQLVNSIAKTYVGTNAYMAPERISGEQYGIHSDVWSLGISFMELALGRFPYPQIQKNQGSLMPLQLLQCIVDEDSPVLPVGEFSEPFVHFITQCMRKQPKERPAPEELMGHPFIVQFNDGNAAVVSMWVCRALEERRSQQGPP

[19] = biological target: Serine/threonine-protein kinase 3 (Homo sapiens) (UniProt Q13188); test: Inhibition of human MST2 at 100 nM using MBP as substrate by [gamma-33P]-ATP assay
[20] = biological target: Serine/threonine-protein kinase Nek8 (Homo sapiens) (UniProt Q86SG6); test: Inhibition of human NEK8 at 100 nM using casein as substrate by [gamma-33P]-ATP assay
[21] = biological target: Protein kinase C eta type (Homo sapiens) (UniProt P24723); test: Inhibition of human PKCeta at 100 nM using ERMRPRKRQGSVRRRV as substrate by [gamma-33P]-ATP assay
[22] = biological target: Serine/threonine-protein kinase N1 (Homo sapiens) (UniProt Q16512); test: Inhibition of human PKN1 at 100 nM using KKLNRTLSVA as substrate by [gamma-33P]-ATP assay
[23] = biological target: Serine/threonine-protein kinase 16 (Homo sapiens) (UniProt O75716); test: Inhibition of human STK16 at 100 nM using MBP as substrate by [gamma-33P]-ATP assay
[24] = biological target: STE20/SPS1-related proline-alanine-rich protein kinase (Homo sapiens) (UniProt Q9UEW8); test: Inhibition of human STK39 at 100 nM using MBP as substrate by [gamma-33P]-ATP assay
[25] = biological target: TRAF2 and NCK-interacting protein kinase (Homo sapiens) (UniProt Q9UKE5); test: Inhibition of human TNIK at 100 nM using RLGRDKYKTLRQIRQ as substrate by [gamma-33P]-ATP assay
[26] = biological target: DNA-dependent protein kinase catalytic subunit (Homo sapiens) (UniProt P78527); test: Inhibition of human DNAPK at 100 nM using EPPLSQEAFADLWKK as substrate by [gamma-33P]-ATP assay
[27] = biological target: [Pyruvate dehydrogenase (acetyl-transferring)] kinase isozyme 4, mitochondrial (Homo sapiens) (UniProt Q16654); test: Inhibition of human PDK4 at 100 nM using MBP as substrate by [gamma-33P]-ATP assay
HeLa = test: Antitumor activity against human HeLa cells xenografted in ig dosed BALB/c nude mouse assessed as tumor growth inhibition administered for 30 days measured every 3 days during compound dosing relative to control; type: functional, organism-based

## COc1ccc(N2C(=O)COc3ccc(-c4cnc(OC)c(NS(=O)(=O)c5ccc(F)cc5)c4)cc32)cc1
PC-12
  Activity: Non-Toxic
HCT-116
  IC50: 13.4 µM
[1]
  Vd: 1.2 L/kg
A549
  inhibition in vivo at 20 mg/kg: 57.8%
[2]
  inhibition: 1.19%
[3]
  inhibition: 3.37%
[4]
  inhibition: 5.47%
[5]
  inhibition: 9.02%
[6]
  inhibition: 4%
[7]
  inhibition: 9.71%
[8]
  inhibition: 11.5%
[9]
  inhibition: -0.06%
[10]
  inhibition: 17.4%
[11]
  inhibition: -7.53%
[12]
  inhibition: -2.68%
[13]
  inhibition: -4.85%
[14]
  inhibition: -3.23%
[15]
  inhibition: 10.1%
[16]
  inhibition: 5.14%
[17]
  inhibition: -1.96%
[18]
  inhibition: -3.16%
[19]
  inhibition: -8.9%
[20]
  inhibition: 14.4%
[21]
  inhibition: 18%
[22]
  inhibition: 16.8%
[23]
  inhibition: -2.3%
[24]
  inhibition: 10%
[25]
  inhibition: 15.6%
[26]
  inhibition: 74.4%
[27]
  inhibition: -4.54%
HeLa
  TGI: Dose-dependent effect
